Laboratory results from patent publication US9738634B2, “Heterocyclic amide compound and herbicide” (SYNGENTA PARTICIPATIONS AG, priority 2013, dated 2017).

Assays:
Assay type in all cases: in vivo
fig-leafed goosefoot = test: Test Example 3: weedkilling efficacy through soil treatment; M: fig-leafed goosefoot; conditions: soil treatment, treatment dosage 315 g/ha
Outline: (§1)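 Crop and weed responses were judged three weeks after a uniform surface spray of the water-diluted emulsion at the given g/ha rate. Seeds sat beneath about 1.5 cm of sterilized diluvial soil, and boxes stood in a greenhouse at 25 to 30° C.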

oval-leafed pondweed [1] = test: Test Example 2: weedkilling efficacy, growth period weed treatment in the submerged state; C: oval-leafed pondweed; conditions: treatment dosage 252 g/ha
Outline: (§2)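 Seedlings at 1-2 leaves in 4 cm-deep submerged alluvial soil received emulsion formulations on the water surface, dosed per hectare; effects were judged 3 weeks on.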

transplanted rice = test: Test Example 1: preemergent weed treatment in the submerged state, effect on crop; a: transplanted rice; conditions: treatment dosage 252 g/ha
Outline: (§3)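 Pre-emergence paddy test: weed seeds sown in submerged alluvial soil (4 cm water), 2.5-leaf rice transplanted, water-diluted emulsion applied to water surface at sowing at stated g/ha. Scored at 3 weeks, greenhouse 25–30 °C.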

barnyard grass [2] = test: Test Example 2: weedkilling efficacy, growth period weed treatment in the submerged state; A: barnyard grass; conditions: treatment dosage 252 g/ha
Outline: as §2

green foxtail = test: Test Example 3: weedkilling efficacy through soil treatment; E: green foxtail; conditions: soil treatment, treatment dosage 315 g/ha
Outline: as §1

bulrush [3] = test: Test Example 2: weedkilling efficacy, growth period weed treatment in the submerged state; B: bulrush; conditions: treatment dosage 252 g/ha
Outline: as §2

crabgrass = test: Test Example 3: weedkilling efficacy through soil treatment; D: crabgrass; conditions: soil treatment, treatment dosage 315 g/ha
Outline: as §1

Indian mallow = test: Test Example 3: weedkilling efficacy through soil treatment; K: Indian mallow; conditions: soil treatment, treatment dosage 315 g/ha
Outline: as §1

directly sown rice = test: Test Example 3: soil treatment, effect on crop; b: directly sown rice; conditions: soil treatment, treatment dosage 315 g/ha
Outline: as §1

wild oat = test: Test Example 3: weedkilling efficacy through soil treatment; G: wild oat; conditions: soil treatment, treatment dosage 315 g/ha
Outline: as §1

Italian ryegrass = test: Test Example 3: weedkilling efficacy through soil treatment; I: Italian ryegrass; conditions: soil treatment, treatment dosage 315 g/ha
Outline: as §1

black-grass = test: Test Example 3: weedkilling efficacy through soil treatment; H: black-grass; conditions: soil treatment, treatment dosage 315 g/ha
Outline: as §1

soybean = test: Test Example 3: soil treatment, effect on crop; d: soybean; conditions: soil treatment, treatment dosage 315 g/ha
Outline: as §1

wheat = test: Test Example 3: soil treatment, effect on crop; e: wheat; conditions: soil treatment, treatment dosage 315 g/ha
Outline: as §1

corn = test: Test Example 3: soil treatment, effect on crop; c: corn; conditions: soil treatment, treatment dosage 315 g/ha
Outline: as §1

redroot pigweed = test: Test Example 3: weedkilling efficacy through soil treatment; L: redroot pigweed; conditions: soil treatment, treatment dosage 315 g/ha
Outline: as §1

birds-eye speedwell = test: Test Example 3: weedkilling efficacy through soil treatment; p: birds-eye speedwell; conditions: soil treatment, treatment dosage 315 g/ha
Text: (§4) Weedkilling Efficacy Test Through Soil Treatment
(§5) Sterilized diluvial soil was introduced into 21 cm long, 13 cm wide, 7 cm deep plastic boxes, and seeds of crabgrass, green foxtail, barnyard grass, wild oat, black-grass, Italian ryegrass, common wind-grass, Indian mallow, redroot pigweed, fig-leafed goosefoot, chickweed, catchweed, birds-eye speedwell, corn, soybean, rice, wheat, beet and rapeseed were each spot-sown, and covered with about 1.5 cm of soil. Next, emulsions of compounds of the present invention prepared according to compounding example 2 were diluted with water to give the specified dosages, and applied uniformly onto the soil surface with a small sprayer. The plants were grown by placing the plastic boxes in a greenhouse at 25 to 30° C., and 3 weeks after the pesticide treatment the effect on each type of plant was investigated on the basis of the assessment criteria of test example 1.
(§6) A: barnyard grass, B: bulrush, C: oval-leafed pondweed, D: crabgrass, E: green foxtail, F: barnyard grass, G: wild oat, H: black-grass, I: Italian ryegrass, J: common wind-grass, K: Indian mallow, L: redroot pigweed, M: fig-leafed goosefoot, N: chickweed, O: catchweed, p: birds-eye speedwell, a: transplanted rice, b: directly sown rice, c: corn, d: soybean, e: wheat, f: beet, g: rapeseed
(§7) Further, pesticide dosage (g/ha) indicates the concentration regulated such that treatment was with only the stated number of grams (g), when calculated per hectare (ha).

catchweed = test: Test Example 3: weedkilling efficacy through soil treatment; O: catchweed; conditions: soil treatment, treatment dosage 315 g/ha
Text: as §4, §5, §6, §7

bulrush [4] = test: Test Example 1: weedkilling efficacy, preemergent weed treatment in the submerged state; B: bulrush; conditions: treatment dosage 252 g/ha
Outline: as §3

oval-leafed pondweed [5] = test: Test Example 1: weedkilling efficacy, preemergent weed treatment in the submerged state; C: oval-leafed pondweed; conditions: treatment dosage 252 g/ha
Outline: as §3

barnyard grass [6] = test: Test Example 1: weedkilling efficacy, preemergent weed treatment in the submerged state; A: barnyard grass; conditions: treatment dosage 252 g/ha
Outline: as §3

beet = test: Test Example 3: soil treatment, effect on crop; f: beet; conditions: soil treatment, treatment dosage 315 g/ha
Outline: as §1

chickweed = test: Test Example 3: weedkilling efficacy through soil treatment; N: chickweed; conditions: soil treatment, treatment dosage 315 g/ha
Outline: as §1

SMILES | M: fig-leafed goosefoot, weedkilling efficacy grade (fig-leafed goosefoot) | C (oval-leafed pondweed) weedkilling efficacy grade (oval-leafed pondweed [1]) | a: transplanted rice, effect on crop grade (transplanted rice) | A (barnyard grass) weedkilling efficacy grade (barnyard grass [2]) | E: green foxtail, weedkilling efficacy grade (green foxtail) | B (bulrush) weedkilling efficacy grade (bulrush [3]) | D: crabgrass, weedkilling efficacy grade (crabgrass) | K: Indian mallow, weedkilling efficacy grade (Indian mallow) | b: directly sown rice, effect on crop grade (directly sown rice) | G: wild oat, weedkilling efficacy grade (wild oat) | I: Italian ryegrass, weedkilling efficacy grade (Italian ryegrass) | H: black-grass, weedkilling efficacy grade (black-grass) | d: soybean, effect on crop grade (soybean) | e: wheat, effect on crop grade (wheat) | c: corn, effect on crop grade (corn) | L: redroot pigweed, weedkilling efficacy grade (redroot pigweed) | P: birds-eye speedwell, weedkilling efficacy grade (birds-eye speedwell) | B: bulrush, weed kill grade (bulrush [4]) | C: oval-leafed pondweed, weed kill grade (oval-leafed pondweed [5]) | A: barnyard grass, weed kill grade (barnyard grass [6]) | also measured
CC(C)(C(=O)Nc1cc(F)ccn1)N1COCN(c2ccccc2)C1=O [A-2-03] | 4 (weed kill ratio 70% or more, less than 90%) | 3 (weed kill ratio 40% or more, less than 70%) | 1 (weed kill ratio 5% or more, less than 20%) | 5 (weed kill ratio 90% or more, (practically complete withering)) | 5 (weed kill ratio 90% or more, (practically complete withering)) | 5 (weed kill ratio 90% or more, (practically complete withering)) | 5 (weed kill ratio 90% or more, (practically complete withering)) | 0 (weed kill ratio 5% or less (practically no effect)) | 5 (weed kill ratio 90% or more, (practically complete withering)) | 5 (weed kill ratio 90% or more, (practically complete withering)) | 5 (weed kill ratio 90% or more, (practically complete withering)) | 5 (weed kill ratio 90% or more, (practically complete withering)) | 0 (weed kill ratio 5% or less (practically no effect)) | 2 (weed kill ratio 20% or more, less than 40%) | 3 (weed kill ratio 40% or more, less than 70%) | 4 (weed kill ratio 70% or more, less than 90%) | 5 (weed kill ratio 90% or more, (practically complete withering)) | 5 (weed kill ratio 90% or more, (practically complete withering)) | 5 (weed kill ratio 90% or more, (practically complete withering)) | 5 (weed kill ratio 90% or more, (practically complete withering)) | O: catchweed, weedkilling efficacy grade (catchweed): 5 (weed kill ratio 90% or more, (practically complete withering)); f: beet, effect on crop grade (beet): 0 (weed kill ratio 5% or less (practically no effect)); N: chickweed, weedkilling efficacy grade (chickweed): 4 (weed kill ratio 70% or more, less than 90%)
CC(C)(C(=O)Nc1cc(Cl)ccn1)N1COCN(c2ccccc2)C1=O [A-2-06] | 4 (weed kill ratio 70% or more, less than 90%) | 5 (weed kill ratio 90% or more, (practically complete withering)) | 4 (weed kill ratio 70% or more, less than 90%) | 5 (weed kill ratio 90% or more, (practically complete withering)) | 5 (weed kill ratio 90% or more, (practically complete withering)) | 5 (weed kill ratio 90% or more, (practically complete withering)) | 5 (weed kill ratio 90% or more, (practically complete withering)) | 4 (weed kill ratio 70% or more, less than 90%) | 5 (weed kill ratio 90% or more, (practically complete withering)) | 5 (weed kill ratio 90% or more, (practically complete withering)) | 5 (weed kill ratio 90% or more, (practically complete withering)) | 5 (weed kill ratio 90% or more, (practically complete withering)) | 3 (weed kill ratio 40% or more, less than 70%) | 1 (weed kill ratio 5% or more, less than 20%) | 3 (weed kill ratio 40% or more, less than 70%) | 5 (weed kill ratio 90% or more, (practically complete withering)) | 5 (weed kill ratio 90% or more, (practically complete withering)) | 5 (weed kill ratio 90% or more, (practically complete withering)) | 5 (weed kill ratio 90% or more, (practically complete withering)) | 5 (weed kill ratio 90% or more, (practically complete withering)) | f: beet, effect on crop grade (beet): 4 (weed kill ratio 70% or more, less than 90%); N: chickweed, weedkilling efficacy grade (chickweed): 4 (weed kill ratio 70% or more, less than 90%)
CC(C)(C(=O)Nc1cccc(Br)n1)N1COCN(c2ccccc2)C1=O [A-2-09] | 4 (weed kill ratio 70% or more, less than 90%) | 5 (weed kill ratio 90% or more, (practically complete withering)) | 0 (weed kill ratio 5% or less (practically no effect)) | 5 (weed kill ratio 90% or more, (practically complete withering)) | 5 (weed kill ratio 90% or more, (practically complete withering)) | 5 (weed kill ratio 90% or more, (practically complete withering)) | 5 (weed kill ratio 90% or more, (practically complete withering)) | 3 (weed kill ratio 40% or more, less than 70%) | 5 (weed kill ratio 90% or more, (practically complete withering)) | 5 (weed kill ratio 90% or more, (practically complete withering)) | 5 (weed kill ratio 90% or more, (practically complete withering)) | 5 (weed kill ratio 90% or more, (practically complete withering)) | 3 (weed kill ratio 40% or more, less than 70%) | 1 (weed kill ratio 5% or more, less than 20%) | 3 (weed kill ratio 40% or more, less than 70%) | 5 (weed kill ratio 90% or more, (practically complete withering)) | 5 (weed kill ratio 90% or more, (practically complete withering)) | 5 (weed kill ratio 90% or more, (practically complete withering)) | 5 (weed kill ratio 90% or more, (practically complete withering)) | 5 (weed kill ratio 90% or more, (practically complete withering)) | f: beet, effect on crop grade (beet): 4 (weed kill ratio 70% or more, less than 90%); N: chickweed, weedkilling efficacy grade (chickweed): 4 (weed kill ratio 70% or more, less than 90%)
